Source: the NIST ThermoML archive (doi:10.1016/j.jct.2016.08.038)

Legend:
[1] = for electrical conductivity: Frequency=0.001 MHz, Alternating current cell with electrodes; for electrical conductivity / speed of sound / kinematic viscosity / mass density / surface tension liquid-gas: Liquid; for speed of sound: Frequency=3 MHz, Sing-around technique in a fixed-path interferometer; for kinematic viscosity: Capillary tube (Ostwald / Ubbelohde) method; for mass density: Vibrating tube method; for surface tension liquid-gas: Drop volume
[2] = Molar enthalpy of transition or fusion; settings: DSC
[3] = molar heat capacity at constant pressure; settings: 101.33 kPa, Small sample (50 mg) DSC, Liquid
[4] = refractive index (Na D-line) (dimensionless); settings: 101.33 kPa, Standard Abbe refractometry, Liquid

CC[n+]1ccccc1.O=S(=O)([O-])C(F)(F)F [1-ethylpyridinium triflate]
[1]
Settings | electrical conductivity [S/m] | kinematic viscosity [m2/s] | mass density [kg/m3] | speed of sound [m/s]
293.15 K, 100 kPa | 0.407 | – | – | 1500.4
293.15 K, 101.33 kPa | – | 6.89e-05 | 1409.09 | –
295.65 K, 100 kPa | 0.456 | – | – | 1495
295.65 K, 101.33 kPa | – | 6.14e-05 | 1407.09 | –
298.15 K, 100 kPa | 0.502 | – | – | 1489.1
298.15 K, 101.33 kPa | – | 5.47e-05 | 1405.03 | –
300.65 K, 100 kPa | 0.556 | – | – | 1483.4
300.65 K, 101.33 kPa | – | 4.95e-05 | 1402.96 | –
303.15 K, 100 kPa | 0.613 | – | 1400.91 | 1477.7
303.15 K, 101.33 kPa | – | 4.45e-05 | 1400.9 | –
303.15 K, 5000 kPa | – | – | 1403.53 | –
303.15 K, 10000 kPa | – | – | 1406.14 | –
303.15 K, 15000 kPa | – | – | 1408.69 | –
303.15 K, 20000 kPa | – | – | 1411.17 | –
303.15 K, 25000 kPa | – | – | 1413.58 | –
303.15 K, 30000 kPa | – | – | 1415.93 | –
303.15 K, 35000 kPa | – | – | 1418.22 | –
303.15 K, 40000 kPa | – | – | 1420.44 | –
305.65 K, 100 kPa | 0.676 | – | – | 1471.9
305.65 K, 101.33 kPa | – | 4.02e-05 | 1398.85 | –
308.15 K, 100 kPa | 0.744 | – | – | 1466.3
308.15 K, 101.33 kPa | – | 3.63e-05 | 1396.8 | –
310.65 K, 100 kPa | 0.808 | – | – | 1461.1
310.65 K, 101.33 kPa | – | 3.3e-05 | 1394.77 | –
313.15 K, 100 kPa | 0.872 | – | – | 1455
313.15 K, 101.33 kPa | – | 3.01e-05 | 1392.77 | –
315.65 K, 100 kPa | 0.953 | – | – | 1450
315.65 K, 101.33 kPa | – | 2.75e-05 | 1390.68 | –
318.15 K, 100 kPa | 1.02 | – | – | 1444
318.15 K, 101.33 kPa | – | 2.52e-05 | 1388.63 | –
320.65 K, 100 kPa | 1.13 | – | – | 1438.2
320.65 K, 101.33 kPa | – | 2.31e-05 | 1386.59 | –
323.15 K, 100 kPa | 1.21 | – | – | 1433.2
323.15 K, 101.33 kPa | – | 2.13e-05 | 1384.6 | –
325.65 K, 100 kPa | 1.3 | – | – | 1427.4
325.65 K, 101.33 kPa | – | 1.96e-05 | 1382.5 | –
328.15 K, 100 kPa | 1.39 | – | – | 1421.9
328.15 K, 101.33 kPa | – | 1.82e-05 | 1380.47 | –
330.65 K, 100 kPa | 1.47 | – | – | 1416.1
330.65 K, 101.33 kPa | – | 1.69e-05 | 1378.45 | –
333.15 K, 100 kPa | 1.59 | – | – | 1410.6
333.15 K, 101.33 kPa | – | 1.57e-05 | 1376.42 | –
335.65 K, 100 kPa | 1.68 | – | – | 1405.1
335.65 K, 101.33 kPa | – | 1.46e-05 | 1374.41 | –
338.15 K, 100 kPa | 1.78 | – | – | 1399.7
338.15 K, 101.33 kPa | – | 1.36e-05 | 1372.35 | –

Settings | Molar enthalpy of transition or fusion [kcal/mol] | Normal melting temperature [°C] | Triple point temperature [K] | molar heat capacity at constant pressure [J/K/mol] | refractive index | surface tension liquid-gas [mN/m]
[1], 293.15 K | – | – | – | – | – | 42.48
[1], 295.65 K | – | – | – | – | – | 42.36
[1], 298.15 K | – | – | – | – | – | 42.26
[1], 300.65 K | – | – | – | – | – | 42.15
[1], 303.15 K | – | – | – | – | – | 42.08
[1], 305.65 K | – | – | – | – | – | 42.02
[1], 308.15 K | – | – | – | – | – | 41.93
[1], 310.65 K | – | – | – | – | – | 41.83
[1], 313.15 K | – | – | – | – | – | 41.71
[1], 315.65 K | – | – | – | – | – | 41.65
[1], 318.15 K | – | – | – | – | – | 41.55
[1], 320.65 K | – | – | – | – | – | 41.43
[1], 323.15 K | – | – | – | – | – | 41.31
[1], 325.65 K | – | – | – | – | – | 41.22
[1], 328.15 K | – | – | – | – | – | 41.16
[1], 330.65 K | – | – | – | – | – | 41.07
[1], 333.15 K | – | – | – | – | – | 40.95
[1], 335.65 K | – | – | – | – | – | 40.88
[1], 338.15 K | – | – | – | – | – | 40.76
[1], Crystal 1, DTA | – | 16 | – | – | – | –
[1], Crystal 2, DSC | – | – | 260.4 | – | – | –
[2], Crystal 1 | 2.75 | – | – | – | – | –
[2], Crystal 2 | 0.167 | – | – | – | – | –
[3], 293.15 K | – | – | – | 348.4 | – | –
[3], 295.65 K | – | – | – | 350.2 | – | –
[3], 298.15 K | – | – | – | 351.8 | – | –
[3], 300.65 K | – | – | – | 353.6 | – | –
[3], 303.15 K | – | – | – | 355.3 | – | –
[3], 305.65 K | – | – | – | 357.1 | – | –
[3], 308.15 K | – | – | – | 358.7 | – | –
[3], 310.65 K | – | – | – | 360.5 | – | –
[3], 313.15 K | – | – | – | 362.1 | – | –
[3], 315.65 K | – | – | – | 363.8 | – | –
[3], 318.15 K | – | – | – | 365.4 | – | –
[3], 320.65 K | – | – | – | 367 | – | –
[3], 323.15 K | – | – | – | 368.7 | – | –
[3], 325.65 K | – | – | – | 370.3 | – | –
[3], 328.15 K | – | – | – | 371.8 | – | –
[3], 330.65 K | – | – | – | 373.5 | – | –
[3], 333.15 K | – | – | – | 375.2 | – | –
[3], 335.65 K | – | – | – | 376.9 | – | –
[3], 338.15 K | – | – | – | 378.6 | – | –
[4], 293.15 K | – | – | – | – | 1.46039 | –
[4], 295.65 K | – | – | – | – | 1.45969 | –
[4], 298.15 K | – | – | – | – | 1.45898 | –
[4], 300.65 K | – | – | – | – | 1.4583 | –
[4], 303.15 K | – | – | – | – | 1.45759 | –
[4], 305.65 K | – | – | – | – | 1.45689 | –
[4], 308.15 K | – | – | – | – | 1.45619 | –
[4], 310.65 K | – | – | – | – | 1.4555 | –
[4], 313.15 K | – | – | – | – | 1.45484 | –
[4], 315.65 K | – | – | – | – | 1.45415 | –
[4], 318.15 K | – | – | – | – | 1.45345 | –
[4], 320.65 K | – | – | – | – | 1.45276 | –
[4], 323.15 K | – | – | – | – | 1.45206 | –
[4], 325.65 K | – | – | – | – | 1.45134 | –
[4], 328.15 K | – | – | – | – | 1.45064 | –
[4], 330.65 K | – | – | – | – | 1.44995 | –
[4], 333.15 K | – | – | – | – | 1.44927 | –
[4], 335.65 K | – | – | – | – | 1.44859 | –
[4], 338.15 K | – | – | – | – | 1.44789 | –
